Measured values reported in patent US12194039B2, “Methods of treating heart failure by administering omecamtiv mecarbil” (Cytokinetics, Inc., priority 2020, dated 2025).
Like-named read-outs stand apart in the source and are kept apart here.

Tests used:
[1] = system: patients with heart failure and reduced ejection fraction; type: in vivo, human; settings: for Creatinine, change from baseline, mean / Heart rate, change from baseline, mean / Potassium, change from baseline, mean / Systolic blood pressure, change from baseline, mean / Troponin, change from baseline, median: N = 4110
Protocol: All eligible participants were randomized 1:1 to oral administration of either placebo or omecamtiv mecarbil (pharmacokinetic-guided dosing: 25, 37.5 or 50 mg) twice daily. Pre-dose plasma concentrations of omecamtiv mecarbil were measured at weeks 2 and 6 with respective dose adjustments on weeks 4 and 8. The patient and investigator were blinded to the plasma concentrations and dispensed dose. The full schedule of assessments is provided in the protocol available at NEJM.org. Study drug was temporarily withheld if the participant experienced clinical signs or symptoms consistent with acute myocardial infarction or ischemia.
Other outcomes of interest included the effects of omecamtiv mecarbil on vital signs and selected laboratory values (Table 3).
Continuous variables were summarized as means±standard deviations (SD) or medians and first and third quartiles (Q1, Q3), as appropriate. Categorical variables were summarized as counts and percentages. […] The change from baseline on NT-proBNP analysis included all participants who underwent randomization. The difference column is the exponentiated change from baseline on the log scale using a mixed model containing the log baseline value, region, baseline eGFR, scheduled visit, treatment group and interaction of treatment with scheduled visit.

[2] = system: patients with or without more advanced HF; type: in vivo, human; settings: for KCCQ total symptom score (TSS), increase: inpatient; for KCCQ total symptom score (TSS), increase / KCCQ total symptom score (TSS), decrease: vs placebo; for KCCQ total symptom score (TSS), decrease: outpatient
From the text: Patients having more advanced heart failure (HF): In some aspects, provided is a method of treating a patient having more advanced HF by administering omecamtiv mecarbil as described herein. More advanced HF, also referred to as severe HF, refractory HF, or Stage D HF, can be determined based on a number of criteria recognized in the medical field. In some embodiments, more advanced HF refers to the published criteria from the 2018 ESC-HFA position statement (European journal of heart failure. 2018; 20:1505-1535). For the ESC-HFA criteria, patients were required to have all of 1) NYHA class III-IV symptoms, 2) a left ventricular ejection fraction 30%, 3) 2 or more hospitalizations for HF within the prior 12 months, and 4) evidence of severe functional impairment as defined by cardiopulmonary exercise testing or 6-minute walk test. In some embodiments, the hospitalization criteria is modified to one HF hospitalization within the prior 6 months In some embodiments, more advanced HF refers to patients having all of 1) NYHA class III-IV symptoms, 2) a left ventricular ejection fraction 30%, and 3) 1 or more hospitalizations for HF within the prior 6 months.
Baseline characteristics for patients classified as more advanced HF compared to those without were evaluated using appropriate summary statistics. Outcomes for patients with or without more advanced HF were compared using Cox proportional hazards models and Kaplan-Meier curves. […] Absolute event rates were described using rate per 100 patient-years. As a sensitivity analysis, the event rates and treatment effect of omecamtiv mecarbil for patients was assessed by specific advanced HF criteria met, as well as the total number of criteria met. For quality-of-life data as assessed by the Kansas City Cardiomyopathy Questionnaire Total Symptom Score (KCCQ TSS), linear regression adjusted for baseline scores was used to compare treatment effects of omecamtiv mecarbil compared to placebo. Safety and tolerability data for patients with advanced HF vs. those without were summarized using descriptive statistics. P value ≤0.05 was considered statistically significant for all analyses.

[3] = Advanced HF, week 0 to 24, OM vs placebo
[4] = Less Advanced Heart Failure, OM group
[5] = Less Advanced Heart Failure, OM vs placebo
[6] = More Advanced Heart Failure, OM group
[7] = More Advanced Heart Failure, OM vs placebo

For `COC(=O)N1CCN(Cc2cccc(NC(=O)Nc3ccc(C)nc3)c2F)CC1` [omecamtiv mecarbil], the “Creatinine, change from baseline, difference vs placebo” value ([1]; Week 24) was 0.007 mg/dL, the “Heart rate, change from baseline, difference vs placebo” value ([1]; Week 24) was −1.61 bpm and the “Potassium, change from baseline, difference vs placebo” value ([1]; Week 24) was 0.002 mmol/L. The “Systolic blood pressure, change from baseline, difference vs placebo” value ([1]; Week 24) was −0.13 mmHg, the “Creatinine, change from baseline, mean” value ([1]; Week 24) was 0.03 mg/dL and the “Heart rate, change from baseline, mean” value ([1]; Week 24) was −2.1 bpm. For the same compound, the “Potassium, change from baseline, mean” value ([1]; Week 24) was -0.01 mmol/L, the “Systolic blood pressure, change from baseline, mean” value ([1]; Week 24) was 1.4 mmHg and the “Troponin, change from baseline, median” value ([1]; Week 24) was 0.004 ng/mL. For the same compound, the “NT-proBNP, change from baseline, median” value ([1]; Week 24, all randomized participants) was -251 pg/mL, the “Troponin, change from baseline, difference vs placebo” value ([1]; Week 24, lower limit of quantification 0.010 ng/mL) was 0.004 ng/mL and the “NT-proBNP, exponentiated change from baseline on the log scale, omecamtiv mecarbil vs placebo” value ([1]; Week 24, mixed model) was 0.90. For the same compound, the “NT-proBNP concentrations compared to placebo” value ([1]; Week 24, result in words) was “significantly decreased”, the “Creatinine, change from baseline, difference vs placebo” value ([1]; Week 48) was 0.010 mg/dL and the “Heart rate, change from baseline, difference vs placebo” value ([1]; Week 48) was −1.75 bpm. For the same compound, the “Potassium, change from baseline, difference vs placebo” value ([1]; Week 48) was -0.007 mmol/L, the “Systolic blood pressure, change from baseline, difference vs placebo” value ([1]; Week 48) was 0.16 mmHg and the “Troponin, change from baseline, difference vs placebo” value ([1]; Week 48) was 0.002 ng/mL. The “Creatinine, change from baseline, mean” value ([1]; Week 48) was 0.06 mg/dL, the “Heart rate, change from baseline, mean” value ([1]; Week 48) was −2.0 bpm and the “Potassium, change from baseline, mean” value ([1]; Week 48) was -0.03 mmol/L. For the same compound, the “Systolic blood pressure, change from baseline, mean” value ([1]; Week 48) was 2.0 mmHg, the “Troponin, change from baseline, median” value ([1]; Week 48) was 0.002 ng/mL and the “Heart rate compared to placebo” value ([1]; at 24 and 48 weeks, result in words) was “small but significant decrease”. The “Change in systolic blood pressure, omecamtiv mecarbil vs placebo” value ([1]; at 24 or 48 weeks, result in words) was “no significant difference”, the “Potassium or creatinine concentrations compared to placebo” value ([1]; during the course of the trial, result in words) was “no change” and the Creatinine ([2]; Advanced HF, OM group, week 24) was 1.37 ± 0.55 mg/dL. For the same compound, the NT-proBNP ([2]; Advanced HF, OM group, week 24) was 1837 [856, pg/ml, the “Systolic BP” value ([2]; Advanced HF, OM group, week 24) was 116.7 ± 17.3 mm Hg and the “NT-proBNP (Ratio)” value [2, 3] was 0.86. The “Troponin I (Ratio)” value [2, 3] was 1.30, the “All-cause Death (%)” value [2, 4] was “(23%)” and the “All-cause Death Rate” value [2, 4] was 12.4 per 100 patient years. For the same compound, the “All-cause Death n/N” value [2, 4] was 692/3014, the “HF Hosp as 1st Primary Event (%)” value [2, 4] was “(24%)” and the “HF Hosp as 1st Primary Event Rate” value [2, 4] was 15.0 per 100 patient years. For the same compound, the “HF Hosp as 1st Primary Event n/N” value [2, 4] was 722/3014, the “Heart Failure Hospitalization (%)” value [2, 4] was “(25%)” and the “Heart Failure Hospitalization Rate” value [2, 4] was 15.4 per 100 patient years. For the same compound, the “Heart Failure Hospitalization n/N” value [2, 4] was 746/3014, the “Primary Outcome (%)” value [2, 4] was “(34%)” and the “Primary Outcome Rate” value [2, 4] was 21.1 per 100 patient years. For the same compound, the “Primary Outcome n/N” value [2, 4] was 1013/3014, the “Urgent Outpatient Visit as 1st Primary Event (%)” value [2, 4] was “(2%)” and the “Urgent Outpatient Visit as 1st Primary Event Rate” value [2, 4] was 1.1 per 100 patient years. For the same compound, the “Urgent Outpatient Visit as 1st Primary Event n/N” value [2, 4] was 52/3014, the “All-cause Death ARR” value [2, 5] was 0.6 per 100 patient years and the “All-cause Death HR (95% CI)” value [2, 5] was 1.05 (0.94, 1.17);. For the same compound, the “Heart Failure Hospitalization ARR” value [2, 5] was −0.1 per 100 patient years, the “Heart Failure Hospitalization HR (95% CI)” value [2, 5] was 1.01 (0.91, 1.12); and the “Primary Outcome ARR” value [2, 5] was 0.2 per 100 patient years. For the same compound, the “Primary Outcome HR (95% CI)” value [2, 5] was 0.99 (0.91, 1.08);, the “All-cause Death (%)” value [2, 6] was “(34%)” and the “All-cause Death Rate” value [2, 6] was 20.1 per 100 patient years. The “All-cause Death n/N” value [2, 6] was 365/1081, the “HF Hosp as 1st Primary Event (%)” value [2, 6] was “(35%)” and the “HF Hosp as 1st Primary Event Rate” value [2, 6] was 25.9 per 100 patient years. The “HF Hosp as 1st Primary Event n/N” value [2, 6] was 385/1106, the “Heart Failure Hospitalization (%)” value [2, 6] was “(36%)” and the “Heart Failure Hospitalization Rate” value [2, 6] was 26.2 per 100 patient years. The “Heart Failure Hospitalization n/N” value [2, 6] was 385/1081, the “Primary Endpoint (%)” value [2, 6] was “(46%)” and the “Primary Endpoint Rate” value [2, 6] was 34.3 per 100 patient years. The “Primary Endpoint n/N” value [2, 6] was 510/1106, the “Urgent Outpatient Visit as 1st Primary Event (%)” value [2, 6] was “(2%)” and the “Urgent Outpatient Visit as 1st Primary Event Rate” value [2, 6] was 1.2 per 100 patient years. The “Urgent Outpatient Visit as 1st Primary Event n/N” value [2, 6] was 18/1106, the “All-cause Death ARR” value [2, 7] was 1.5 per 100 patient years and the “All-cause Death HR (95% CI)” value [2, 7] was 0.92 (0.80, 1.06);. The “Heart Failure Hospitalization ARR” value [2, 7] was 5.2 per 100 patient years, the “Heart Failure Hospitalization HR (95% CI)” value [2, 7] was 0.84 (0.73, 0.96); and the “Primary Endpoint ARR” value [2, 7] was 8.3 per 100 patient years. For the same compound, the “Primary Endpoint HR (95% CI)” value [2, 7] was 0.80 (0.71, 0.90);, the NT-proBNP ([2]; Non-Advanced HF, OM group, week 24) was 1274 [531, pg/ml and the “NT-proBNP (Ratio)” value ([2]; Non-Advanced HF, week 0 to 24, OM vs placebo) was 0.91. For the same compound, the “KCCQ total symptom score (TSS), increase” value ([2]; advanced HF) was 1.1, the “KCCQ total symptom score (TSS), decrease” value ([2]; advanced HF) was 1.7 and the Myocardial infarctions ([2]; human, in vivo) was 3.8%. The “Serious adverse events related to ventricular tachyarrhythmias” value ([2]; human, in vivo) was 7.9%, the Strokes ([2]; human, in vivo) was 1.6% and the “Treatment emergent serious adverse events” value ([2]; human, in vivo) was 67%. For the same compound, the Circulating cardiac troponin ([2]; in vivo) was “small increase”, the Creatinine ([2]; in vivo) was 1.29 ± 0.49 mg/dL and the “Heart rate lowering, difference in change vs placebo” value ([2]; in vivo) was 1.9 beats/minute. The “Systolic BP” value ([2]; in vivo) was 118.4 ± 16.8 mm Hg, the “Troponin I (Ratio)” value ([2]; in vivo) was 1.24 and the NT-proBNP ([2]; more advanced HF population, result in words) was “significant decrease”. For the same compound, the “KCCQ total symptom score (TSS), increase” value ([2]; non-advanced HF) was 3.3, the “KCCQ total symptom score (TSS), decrease” value ([2]; non-advanced HF) was 0.2 and the “Cardiovascular mortality, hazard ratio” value ([2]; patients with less advanced HF) was 1.10. The “Absolute risk reduction, primary endpoint” value ([2]; patients with more advanced HF) was 8.3 events/100 patient-years, the “Cardiovascular mortality, hazard ratio” value ([2]; patients with more advanced HF) was 0.88 and the “Primary endpoint, hazard ratio” value ([2]; patients with more advanced HF) was 0.80. For the same compound, the “Relative risk reduction, primary endpoint” value ([2]; patients with more advanced HF) was 20%, the “Primary endpoint, hazard ratio” value ([2]; patients without more advanced HF) was 0.99 and the NNT ([2]; primary endpoint, patients with more advanced HF) was 12.
